Reference: PMC11674305, “Inhibition of Neural Crest Cell Migration by Strobilurin Fungicides and Other Mitochondrial Toxicants” (Cells, 2024)
Read-outs that look alike come from different tables or passages of the source.

What was measured:
neural crest cells (NCC) [1] = assay: cMINC (UKN2) assay: circular migration of neural crest cells, with viability; type: cell-based, human; settings: for Ratio: migration/cytotoxicity ratio, hit requires ≥ 1.3, HTC used where no viability effect
Method: (§1) The research group initially developed the first version of the test in 2012 [40]. The test has been further improved and characterized. To perform the cMINC assay, NCCs were thawed in N2-S Medium and seeded on the day of migration-1 (DoM-1) on a 96-well polystyrene plate (Corning, Glendale, AZ, USA) around stoppers, to create a cell-free area of 2 mm diameter (Platypus Technologies, Madison, WI, USA). The cells were resuspended in N2-S Medium supplemented with […] of the cytokines EGF and FGF, and then counted and seeded around the stoppers at a density of 95,000 cells/cm^2. After 24 h, the stoppers were removed, and the medium was exchanged. The removal of the stoppers initiates migration of the NCCs into the cell-free area. For the treatment, the 5x-concentrated toxicant solution was added to the medium 24 h after stopper removal.
On day 2, cells were stained with 533 nM calcein-AM and 1 μg/mL H-33342 (both from Sigma, Steinheim, Germany) and observed using two different channels on the Cellomics ArrayScan VTI imaging microscope (Thermo Fisher, Pittsburgh, PA, USA) to assess viability and migration. For the migration, four pictures were taken in the region of interest (ROI) (5× magnification objective). Migration data were obtained using the software “Ringassay” (http://invitrotox.uni-konstanz.de/ (accessed on 3 November 2024)), which can estimate the previously cell-free area and count the number of H-33342 and calcein-AM double-positive cells. Cell viability was assessed by taking four pictures outside of the ROI with 10× magnification objective. Viable cells were defined as H-33342 and calcein-AM double-positive cells and calculated by an automatic algorithm of the ArrayScan VTI 700 Series software as described earlier. […] Each plate included wells for testing of negative (0.1% DMSO solvent) and positive controls (200 nM cytochalasin D) in addition to the wells for blinded samples. The data from control wells were used as acceptance criteria of the assay. […] Renormalization of the concentration–response curves was performed after a visual inspection that the two lowest test-concentration data points are in the no-effect range. The average response (relative to solvent control) of the lowest two test concentrations was calculated, and all other data points of the same curve were divided by this average value. The calculations of the benchmark concentrations 10 for viability (BMC10 (V)) and 25 for migration (BMC25 (M)) were performed with the online available BMC software (http://invitrotox.uni-konstanz.de/ (accessed on 4 November 2024)).

neural crest cells (NCC) [2] = type: cell-based, human
Method: as §1, with “The removal of the stoppers initiates migration of the NCCs into the cell-free area. For the treatment, the 5x-concentrated toxicant solution was added to the medium 24 h after stopper removal.” left out
On day 2, cells were stained with 533 nM calcein-AM and 1 μg/mL H-33342 (both from Sigma, Steinheim, Germany) and observed using two different channels on the Cellomics ArrayScan VTI imaging microscope (Thermo Fisher, Pittsburgh, PA, USA) to assess viability and migration. […] Cell viability was assessed by taking four pictures outside of the ROI with 10× magnification objective. Viable cells were defined as H-33342 and calcein-AM double-positive cells and calculated by an automatic algorithm of the ArrayScan VTI 700 Series software as described earlier. […] The average response (relative to solvent control) of the lowest two test concentrations was calculated, and all other data points of the same curve were divided by this average value. […]

neural crest cells (NCC) [3] = assay: Long-term transwell migration assay (18 h pre-exposure, 6 h migration); type: cell-based, human
Method: Magel et al. (2024): Inhibition of neural crest cells migration by strobilurin fungicides […]
Figure S11. Prolonged exposure of NCC in a modified transwell assay setup.
(A) Schematic illustration of the “long-term” transwell migration assay. In the beginning, NCC were plated into the insert of the transwell and treated with potential toxicants. In comparison to the standard transwell set-up, the lower medium compartment was initially not supplemented with FBS. In order to ensure a uniform concentration, picoxystrobin was added to both compartments. Cells were then incubated for 18 h (in the absence of a migration stimulus). Afterwards, 5% FBS was added to the lower compartment, to initiate NCC migration through the membrane pores. After 6 h, the number of cells that reached the downward surface of the membrane was quantified. (B) Result of concentration-dependent picoxystrobin testing in galactose medium in the long-term transwell assay. Cytochalasin D (200 nM) was used as positive control for “inhibited” migration (CytoD). “Unstimulated” migration (no FBS) is also shown. The dotted line at 75% indicates the threshold for inhibited migration. Data are expressed as means ± SEM from 3 independent biological experiments.
(also on this page, place not known: concentration -dependent long -term dott ed -4Ctrl Transwell migration [% of control ± SEM] CytoDBMC25 Picoxystrobin) […]

[4] = cited from earlier work
[5] = cited from earlier work; remark: listed apart in the source

Structure (SMILES): CO/C=C(/C(=O)OC)c1ccccc1COc1cccc(C(F)(F)F)n1 [Picoxystrobin, picoxystrobin]
- Migration (neural crest cells (NCC) [1]; Pre-Screen 1, single concentration 1:1000 of stock, in most cases 100 μM): 65 % of control
- effect of 1% HSA on inhibition of NCC migration (neural crest cells (NCC) [1]; medium supplemented with 1% human serum albumin): did not alter the effect
- BMC25 (M) (neural crest cells (NCC) [1]; migration, primary screen, 24 h exposure): 1e-05 M
- Ratio (neural crest cells (NCC) [1]): 6.0
- Ratio (neural crest cells (NCC) [1]; listed as BC2): 6.1
- BMC10 (V) (neural crest cells (NCC) [2]): 2.8 µM
- concentration range at which migration was inhibited (neural crest cells (NCC) [2]; galactose medium): ~100 nM
- concentration range at which migration was inhibited (neural crest cells (NCC) [3]; 18 h pre-treatment + 6 h migration): ~600 nM
- BMC25 (neural crest cells (NCC) [3]; galactose medium, 18 h pre-exposure + 6 h migration): 0.6 µM
- Henry's law constant ([4]; at 25 °C, VIVD model input): 6 × 10^−4 Pa*m^3*mol⁻^1
- charge characterization ([4]; model input): neutral
- blood to plasma ratio [5]: 0.71
- fraction unbound in blood plasma [5]: 0.0127
